According to patent US4174406A, “Terpenylaminoalkanol fish toxicants” (priority 1977, dated 1979):
In brackets after ≈: the same amount, converted by molar mass.

What was measured:
[1] = tested on: Dragonfly naiad; assay: Static bioassay in invertebrates (Table 2); assay type: in vivo, Macromia sp.; conditions: 96 hours, tech, 17 C, soft reconstituted water 42 mg/l hardness
Procedure: (§1) The effect of the various toxicants on common invertebrate species was determined in a static test conducted 17° C. The invertebrates tested were collected from natural populations or purchased from commercial suppliers. They were held in soft water in fiberglass tanks in the laboratory or in outdoor plastic swimming pools. Mortality was observed during holding, and only healthy organisms were used for the toxicity tests. At least 10 organisms of nine species were exposed to each concentration in static tests.

[2] = tested on: Chinook salmon; assay: Laboratory fish toxicity test (Table 1); assay type: in vivo, Oncorhynchus tschawytscha; conditions: tech, 12 C, soft water
Procedure: (§2) Fish were obtained from state and federal hatcheries and maintained prior to testing by a trained fish culturist. Fish of total length 2-5 cm were used in laboratory tests while for outdoor tests small fish (4-6 cm in length) and larger carp and buffalo (Ictiobus cyprinellus) were used.
(§3) In all tests 10 fish of each were exposed to selective concentrations of the toxicant. Mortalities were observed and recorded at 1,2 and 6 hours on the first day and once daily thereafter, during 96 hour exposure.
(§4) Laboratory tests were also conducted in soft water 12° C. wherein the toxicant was evaluated against fifteen species of fish including both cold and warm water varieties. In Table 1, the LC 50 toxicity values for N-(2-hydroxyethyl) digeranylamine is shown for various species. LC50 is defined as the amount (mg/liter) of toxicant required to kill 50 percent of the particular fish species at 95% confidence interval.

[3] = tested on: Aquatic olgochaete; assay: Static bioassay in invertebrates (Table 2); assay type: in vivo; conditions: Tubifex tubifex, tech, 17 C, limed spring water 22-36 mg/l hardness
Procedure: as §1

[4] = tested on: Water flea; assay: Static bioassay in invertebrates (Table 2); assay type: in vivo; conditions: Daphnia magna, tech, 17 C, limed spring water 22-36 mg/l hardness
Procedure: as §1

[5] = tested on: Snail (Pleurecera sp.); assay: Static bioassay in invertebrates (Table 2); assay type: in vivo; conditions: tech, 17 C, limed spring water 22-36 mg/l hardness
Procedure: as §1

[6] = tested on: Snail (Physa sp.); assay: Static bioassay in invertebrates (Table 2); assay type: in vivo; conditions: tech, 17 C, limed spring water 22-36 mg/l hardness
Procedure: as §1

[7] = tested on: Seed shrimp or ostracod; assay: Static bioassay in invertebrates (Table 2); assay type: in vivo; conditions: tech, 17 C, limed spring water 22-36 mg/l hardness
Procedure: as §1

[8] = tested on: Banded killifish; assay: Laboratory fish toxicity test (Table 1); assay type: in vivo, Fundulus diaphanus; conditions: tech, 12 C, soft water
Procedure: as §2, §3, §4

[9] = tested on: Yellow perch; assay: Outdoor plastic pool test (Table 3); assay type: in vivo, Perca flavescens; conditions: for % kill: 96 hour, 50% formulation (hydrochloride salt)
Procedure: (§5) N-(2-hydroxyethyl) digeranylamine was tested as a selective fish toxicant in outdoor pools stocked with various fish species and lined with black plastic using 50% water soluble formulations (hydrochloride salt). The formulation was added to each of four pools of 4,000-liter capacity at concentrations of 0.10, 0.15, 0.20, and 0.30 mg/liter. Another pool containing the same number, size, and species of fish served as a control. The test water had algal blooms, a pH of about 8.5, and a total hardness of about 200 mg/liter as CaCo3. The temperature was cool enough (15°-16°C.) to permit the use of trout.
as §2, §3
(§6) Outdoor pool tests were conducted using 50% formulation of the toxicant N-(2-hydroxyethyl) digeranylamine as indicated in Example 8. […] If selective control of white sucker and common carp is desired in an environment which includes rainbow trout, one should employ an effective concentration of toxicant which is at least as great as 0.05 mg/liter but less than 0.1 mg/liter. As a practical fishery practice in the northern United States and Canada, rainbow trout are not usually stocked in bodies of water containing the common carp species; the habitat conditions including water temperature and available oxygen of these species are usually quite different. Common carp and rainbow trout have quite different oxygen and temperature requirements and these differences generally preclude both species cohabitating under natural conditions. In this case the useful range to control common carp and white sucker can be much broader, i.e. 0.1 to 0.3 mg/liter.

[10] = tested on: Green sunfish; assay: Outdoor plastic pool test (Table 3); assay type: in vivo, Lepomis cyanellus; conditions: for % kill: 96 hour, 50% formulation (hydrochloride salt)
Procedure: as §5, §2, §3, §6

[11] = tested on: Channel catfish; assay: Outdoor plastic pool test (Table 3); assay type: in vivo, Ictalurus punctatus; conditions: for % kill: 96 hour, 50% formulation (hydrochloride salt)
Procedure: as §5, §2, §3, §6

[12] = tested on: Lake trout; assay: Laboratory fish toxicity test (Table 1); assay type: in vivo, Salvelinus namaycush; conditions: tech, 12 C, soft water
Procedure: as §2, §3, §4

[13] = tested on: Asiade clam; assay: Static bioassay in invertebrates (Table 2); assay type: in vivo, Corbicula sp.; conditions: tech, 17 C, limed spring water 22-36 mg/l hardness
Procedure: as §1

[14] = tested on: Bluegill; assay: Laboratory fish toxicity test (Table 1); assay type: in vivo, Lepomis macrochirus; conditions: tech, 12 C, soft water
Procedure: as §2, §3, §4

[15] = tested on: Backswimmer; assay: Static bioassay in invertebrates (Table 2); assay type: in vivo, Notonecta sp.; conditions: tech, 17 C, soft reconstituted water 42 mg/l hardness
Procedure: as §1

[16] = tested on: White sucker; assay: Outdoor plastic pool test (Table 3); assay type: in vivo, Catostomus commersoni; conditions: for % kill: 96 hour, 50% formulation (hydrochloride salt); for survival (in words): white suckers
Procedure: as §5, §2, §3, §6

SMILES: CC(C)=CCC/C(C)=C/CN(C/C=C(\C)CCC=C(C)C)CCO [N-(2-hydroxyethyl) digeranylamine]
- LC50 [1]: 2.00 µg/mL (≈ 6 µM)
- LC50 ([2]; 3 hours): 0.300 µg/mL (≈ 0.899 µM)
- LC50 ([2]; 6 hours): 0.210 µg/mL (≈ 0.63 µM)
- LC50 ([2]; 24 hours): 0.167 µg/mL (≈ 0.501 µM)
- LC50 ([2]; 96 hours): 0.129 µg/mL (≈ 0.387 µM)
- LC50 ([3]; 1 hour): 4.3 µg/mL (≈ 12.9 µM)
- LC50 ([3]; 3 hour): 2.64 µg/mL (≈ 7.91 µM)
- LC50 ([3]; 6 hours): 2.35 µg/mL (≈ 7.05 µM)
- LC50 ([3]; 28 hours): 0.28 µg/mL (≈ 0.839 µM)
- LC50 ([3]; 96 hours): 0.054 µg/mL (≈ 0.162 µM)
- LC50 ([4]; 1 hour): 8 µg/mL (≈ 24 µM)
- LC50 ([4]; 3 hour): 3.95 µg/mL (≈ 11.8 µM)
- LC50 ([4]; 6 hours): 3 µg/mL (≈ 8.99 µM)
- LC50 ([4]; 28 hours): 0.8 µg/mL (≈ 2.4 µM)
- LC50 ([4]; 96 hours): 0.16 µg/mL (≈ 0.48 µM)
- LC50 ([5]; 28 hours): 10.3 µg/mL (≈ 30.9 µM)
- LC50 ([5]; 96 hours): 2.68 µg/mL (≈ 8.03 µM)
- LC50 ([6]; 1 hour): 6.30 µg/mL (≈ 18.9 µM)
- LC50 ([6]; 3 hour): 2.25 µg/mL (≈ 6.75 µM)
- LC50 ([6]; 6 hours): 0.945 µg/mL (≈ 2.83 µM)
- LC50 ([6]; 28 hours): 0.580 µg/mL (≈ 1.74 µM)
- LC50 ([6]; 96 hours): 0.460 µg/mL (≈ 1.38 µM)
- LC50 ([7]; 6 hours): 3 µg/mL (≈ 8.99 µM)
- LC50 ([7]; 28 hours): 1 µg/mL (≈ 3 µM)
- LC50 ([7]; 96 hours): 0.32 µg/mL (≈ 0.959 µM)
- LC50 ([8]; 3 hours): 7.20 µg/mL (≈ 21.6 µM)
- LC50 ([8]; 6 hours): 2.77 µg/mL (≈ 8.3 µM)
- LC50 ([8]; 24 hours): 1.32 µg/mL (≈ 3.96 µM)
- LC50 ([8]; 96 hours): 0.792 µg/mL (≈ 2.37 µM)
- % kill ([9]; 0.10 mg/l): 0%
- % kill ([9]; 0.15 mg/l): 30%
- % kill ([9]; 0.20 mg/l): 0%
- % kill ([9]; 0.30 mg/l): 50%
- survival (in words) ([9]; yellow perch, 0.30 mg/liter and lower, 50% formulation): died at 0.30 mg/liter of toxicant, but all survived lower concentrations
- % kill ([10]; 0.10 mg/l): 0%
- % kill ([10]; 0.15 mg/l): 0%
- % kill ([10]; 0.20 mg/l): 0%
- % kill ([10]; 0.30 mg/l): 0%
- survival (in words) ([10]; green sunfish, 0.3 mg/liter, 50% formulation): complete survival
- % kill ([11]; 0.10 mg/l): 0%
- % kill ([11]; 0.15 mg/l): 0%
- % kill ([11]; 0.20 mg/l): 0%
- % kill ([11]; 0.30 mg/l): 40%
- survival (in words) ([11]; channel catfish, 0.30 mg/liter and lower, 50% formulation): died at 0.30 mg/liter of toxicant, but all survived lower concentrations
- LC50 ([12]; 3 hours): 0.109 µg/mL (≈ 0.327 µM)
- LC50 ([12]; 6 hours): 0.0700 µg/mL (≈ 0.21 µM)
- LC50 ([12]; 24 hours): 0.0470 µg/mL (≈ 0.141 µM)
- LC50 ([12]; 96 hours): 0.0570 µg/mL (≈ 0.171 µM)
- LC50 ([13]; 28 hours): 56.0 µg/mL (≈ 168 µM)
- LC50 ([13]; 96 hours): 9.60 µg/mL (≈ 28.8 µM)
- LC50 ([14]; 3 hours): 1.56 µg/mL (≈ 4.68 µM)
- LC50 ([14]; 6 hours): 1.13 µg/mL (≈ 3.39 µM)
- LC50 ([14]; 24 hours): 0.720 µg/mL (≈ 2.16 µM)
- LC50 ([14]; 96 hours, 5760 min): 0.72 µg/mL (≈ 2.16 µM)
- LC50 ([14]; 96 hours, listed as N-(2-hydroxyethyl) Digeranylamine, 5760 min): 0.720 µg/mL (≈ 2.16 µM)
- LC50 ([15]; 1 hour): 9.15 µg/mL (≈ 27.4 µM)
- LC50 ([15]; 3 hour): 8.35 µg/mL (≈ 25 µM)
- LC50 ([15]; 6 hours): 8.30 µg/mL (≈ 24.9 µM)
- LC50 ([15]; 28 hours): 4.90 µg/mL (≈ 14.7 µM)
- LC50 ([15]; 96 hours): 3.45 µg/mL (≈ 10.3 µM)
- % kill ([16]; 0.10 mg/l): 20%
- % kill ([16]; 0.15 mg/l): 70%
- % kill ([16]; 0.20 mg/l): 100%
- % kill ([16]; 0.30 mg/l): 100%
- survival (in words) ([16]; 0.2 mg/liter or higher): none survived
- survival (in words) ([16]; 0.10 and 0.15 mg/liter): Some white suckers and larger carp (19 cm) survived
